In article PMC10216478, “Development of a Non-Peptide Angiotensin II Type 1 Receptor Ligand by Structural Modification of Olmesartan as a Biased Agonist” (Biomedicines, 2023):
Where a chain is given by its changes, count along the chain named.

Columns and labels:
[1] = molecular target: T1, AT1 L112A receptor (Rattus norvegicus, UniProt P25095, L112A); assay: Competition binding study, 125I-[Sar1,Ile8]Ang II, AT1 L112A receptor; conditions: competition with 125I-[Sar1,Ile8]Ang II, n = 3, mean ± standard error, read-out: Binding affinity (Kd)
T1 construct: expressed in transfected cells; host or cells: COS7
T1 sequence (P25095 1-359 L112A): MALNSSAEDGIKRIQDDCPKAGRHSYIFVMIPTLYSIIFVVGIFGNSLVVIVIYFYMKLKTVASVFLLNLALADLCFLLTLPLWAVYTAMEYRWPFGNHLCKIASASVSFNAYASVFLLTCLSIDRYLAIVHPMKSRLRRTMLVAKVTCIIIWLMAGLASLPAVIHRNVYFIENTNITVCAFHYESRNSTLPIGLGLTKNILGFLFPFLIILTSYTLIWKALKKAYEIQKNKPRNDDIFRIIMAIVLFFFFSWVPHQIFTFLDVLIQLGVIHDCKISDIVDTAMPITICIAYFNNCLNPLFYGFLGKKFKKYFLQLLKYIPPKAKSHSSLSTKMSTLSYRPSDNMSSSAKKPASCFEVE
Excerpt: We mutated four amino acids in transmembrane (TM) III, VI, and VII in the AT1 receptor (L112A, Q257A, Y292A, and N295A receptors). We determined the mutation sites of the AT1 receptor according to ARB, which produced olmesartan derivatives with different interactions and functions toward the AT1 receptor, as previously reported by Zhang et al., since the additional 4-hydroxybenzyl groups of R781253 and R794847 were predicted to extend to a sub-pocket on the bottom of the AT1 receptor ligand-binding pocket consisting of Leu^112 and Gln^257. In addition, since the biased ligand TRV027 induced changes near the NPxxY motif in TM domain 7 that are related to receptor activation, Tyr^292 and Asn^295 in the AT1 receptor were mutated.
The synthetic rat AT1 receptor gene, which was cloned in the shuttle expression vector pMT-2, was used for expression and mutagenesis, as described previously. COS7 cells (No. CRL-1651, ATCC, Manassas, VA, USA) were cultured in 10% fetal bovine serum (FBS) and penicillin- and streptomycin-supplemented Dulbecco’s modified Eagle’s essential medium (PS-DMEM) in 5% CO2 at 37 °C. In the experiments, cells were grown without a cell-growth supplement. To express the AT1 receptor protein, 10 µg of purified plasmid DNA per 10^7 cells was used in the transfection. […] We then analyzed the parameters in transfected cells. […]
The Kd (nM) values of receptor binding were determined with ^125I-[Sar^1, Ile^8]AngII-binding experiments under equilibrium conditions. Binding kinetics were determined following the methods described in the literature. […] Ang II was determined in the presence of a high concentration (10^−6 M) of unlabeled [Sar^1, Ile^8]. […] The radioactivity trapped on the filters was quantified using an automatic γ-counter. The percentage (%) of specific binding of ^125I-[Sar^1, Ile^8]Ang II was calculated using the following formula: 100 × (% total binding of ^125I-[Sar^1, Ile^8]Ang II—nonspecific binding of ^125I-[Sar^1, Ile^8]Ang II)/(% total binding of ^125I-[Sar^1, Ile^8]Ang II).

[2] = molecular target: T2, AT1 Q257A receptor (Rattus norvegicus, UniProt P25095, Q257A); assay: Immunoblotting of ERK 1/2 activation in COS7 cells overexpressing AT1-Q257A receptor; type: cell-based; conditions: 1 µM ligands or 0.1 µM Ang II, 10 min, n = 5, vs. (-)
T2 construct: expressed in transfected cells; host or cells: COS7
T2 sequence (P25095 1-359 Q257A): T1 sequence (P25095 1-359 L112A) with A112L, Q257A
Protocol: The synthetic rat AT1 receptor gene, which was cloned in the shuttle expression vector pMT-2, was used for expression and mutagenesis, as described previously. […] In the experiments, cells were grown without a cell-growth supplement. To express the AT1 receptor protein, 10 µg of purified plasmid DNA per 10^7 cells was used in the transfection. Wild-type and mutated AT1 receptors were transiently transfected into cells using Lipofectamine 2000 liposomal reagent (Roche Applied Science, Penzberg, Germany). Cells were plated and grown and were 70–90% confluent at the time of transfection. We incubated plasmid DNA (10 µg)–lipid (10 µL) complexes for 5 min at room temperature and added and incubated the complexes with cells for 24 h. We then analyzed the parameters in transfected cells. […] Transfected cells that had been cultured for 48–72 h were harvested. […]
In in vitro studies, ERK 1/2 activation by 1 µM ligands or 0.1 µM Ang II incubated for 10 min was measured using COS7 cells that overexpressed AT1 wild-type and mutant receptors. ERK activity was measured in cells maintained for 18 h in DMEM containing 0.1% serum. […] We homogenized the cells in lysis buffer plus protease inhibitors and determined the protein concentration using the bicinchoninic acid method. […] The signal was independently quantified by digital image analysis (ImageJ, National Institutes of Health, Bethesda, MD, USA).

Row | Kd [1] [nM] | ERK1/2 activation [2] | Structure (SMILES)
1 | 23 ± 7 | – | CCCc1nc(C(C)(C)O)c(C(=O)O)n1Cc1ccc(-c2cc(Cc3ccc(O)cc3)ccc2-c2nnn[nH]2)cc1 [R781253]
2 | 37 ± 12 | – | CCCc1nc(C(C)(C)O)c(C(N)=O)n1Cc1ccc(-c2ccccc2-c2nnn[nH]2)cc1 [R239470]
3 | – | did not change ERK1/2 activation | CCCc1nc(C(C)(C)O)c(C(=O)O)n1Cc1ccc(-c2ccccc2-c2nnn[nH]2)cc1 [Olmesartan, olmesartan]
